The test system of data set [1] is human osteosarcoma cells (MG-63). Briefly: Cytotoxicity by SRB assay, MG-63 cells. Particulars: for IC50: mean ± SD. It is filed as cell-based. Here is the method:
(§1) The human prostate cancer cells (PC3) and human osteosarcoma cells (MG-63) were obtained from Nawah Scientific Inc. (Mokatam, Cairo, Egypt) and cultured in DMEM (Dulbecco's modified eagle's medium), Gibco, USA, supplemented with fetal bovine serum (FBS) at a concentration of 10% and 100 U/mL of penicillin and streptomycin (PS). The Cells were incubated at 37° C. in a humidified environment that contained 5% CO2.
(§2) Cells were seeded in 96-well plates as aliquots of 100 μL cell suspension and incubated in a complete media for 24 h. Afterward, cells were treated with N′-[(2-chlorobenzoyl)oxy]-1,3-benzothiazole-2-carboximidamide at diverse concentrations ranging from 0.01 μM to 100 μM for 72 h. Then, cells were fixed at 4° C. for one hour with 150 μL of 10% trichloroacetic acid (TCA). After washing the cells five times with distilled water, 70 μL of sulforhodamine (SRB) solution (0.4% w/v) was added and incubated for 10 min at room temperature in a dark place. Cells were washed with 1% acetic acid three times and allowed to air-dry. Then, 150 μL of Tris pH 10.5 (10 mM) was added, and the absorbance was measured at 540 nm using a BMG LABTECH®-FLUOstar Omega microplate reader (Ortenberg, Germany). Half maximal inhibitory concentrations (IC50) values were calculated for each experiment using GraphPad Prism 6 software. IC50 values were reported as mean […] SD.
(§3) The inhibition was calculated using the following equation: Inhibition %=100−Average Viability
Background: The SRB assay estimates cell density from bound dye.

In data set [2] the test system is human prostate cancer cells (PC3). Briefly: Cytotoxicity by SRB assay, PC3 cells. It is filed as cell-based. The note with it: PC-3 cells; for IC50: mean ± SD. The procedure: as §1, §2, §3
The subject of data set [3] is Bacillus cereus, Staphylococcus aureus, Pseudomonas aeruginosa, Escherichia coli, Aspergillus flavus, Chrysosporium keratinophilum. Briefly: Agar plate disc-diffusion antimicrobial screen. The class given is cell-based. Particulars: 10 μL of 10 mg/mL in DMSO per disc, result in words only. Here is the method:
The agar plate disc-diffusion method was applied. Sterilized filter papers (6 mm in diameter) were wetted with 10 μL of a solution of each compound to be tested, containing 10 mg/mL in DMSO, and the discs were allowed to air dry. The discs were then placed onto the surface of agar plates (nutrient agar for bacteria and Sabouraud's dextrose agar for fungi) and seeded with the test organism. Each plate contained 15 mL of the agar medium, previously seeded with 0.2 mL of the broth culture of each organism pre-grown for 18 h. The plates were incubated at 37° C. for 48 h, and 72 h for fungi. The inhibition zones were measured in mm. Discs impregnated with DMSO were used as a control, and its inhibition zone was subtracted from the tested compound actual inhibition zone.
In particular, the present 1,3-benzothiazol-2-yl-N′-[(pyridine-3-carbonyl)oxy]ethanimidamide was screened against gram positive bacteria, namely Bacillus cereus and Staphylococcus aureus, and gram-negative bacterial strains, namely Pseudomonas aeruginosa and Escherichia coli, while the antifungal activity was screened against Aspergillus flavus and Chrysosporium keratinophilum.
Background: Agar diffusion results depend on both activity and mobility in agar.

Turning to `COc1cccc2c1C(=O)c1c(O)c3c(c(O)c1C2=O)C[C@@](O)(C(=O)CO)C[C@@H]3O[C@H]1C[C@H](N)[C@H](O)[C@H](C)O1` [DOX, Doxorubicin, reference compound], the IC50 (usually the concentration needed to halve the response being measured) was determined as 9.4 ± 1.1 µM in data set [1] (Homo sapiens, MG-63, 72 h) and 7.6 ± 0.45 µM in data set [2] (Homo sapiens, PC-3, 72 h).

Take `NC(=NOC(=O)c1ccccc1Cl)c1nc2ccccc2s1` [N′-[(2-chlorobenzoyl)oxy]-1,3-benzothiazole-2-carboximidamide]: in data set [3], the antimicrobial activity result is on record as “excellent antimicrobial activities”.

As to `N/C(Cc1nc2ccccc2s1)=N\OC(=O)c1cccnc1` [Present Compound, 1,3-benzothiazol-2-yl-N′-[(pyridine-3-carbonyl)oxy]ethanimidamide], the melting point (usually the temperature of the solid-liquid transition) lay in the range of 150 to 152 °C. Further, in data set [1] (72 h), inhibition was half-maximal at 3.59 ± 0.2 µM (IC50). Also, in data set [1] (Homo sapiens, 10 μg/ml, 72 h), the inhibition (commonly the drop in the measured response relative to a control, in per cent) at 10 µg/mL came out at 91.2%. For the same compound, the inhibition at 100 µg/mL in data set [1] (Homo sapiens, 100 μg/ml, 72 h) is 92.1%. Besides, in data set [1] (Homo sapiens, MG-63, 72 h), the IC50 is < 4 µM. In addition, the antimicrobial activity entry in data set [3] was “high levels of antimicrobial activity”. The “Prostate Cancer (PC-3) Inhibition %” value in data set [2] (10 μg/ml, 72 h) worked out at 96.21%. Moreover, in data set [2] (Homo sapiens, PC-3, 72 h, 10 μg/ml), testing at 10 µg/mL gave an inhibition of 96%. In data set [2] (Homo sapiens, PC-3, 72 h, 100 μg/ml), this compound returned an inhibition at 100 µg/mL of 97%. Besides, the IC50 in data set [2] (Homo sapiens, PC-3, 72 h) is < 4 µM. The same compound registered an IC50 in data set [2] (72 h) of 2.71 ± 0.03 µM.

The values are drawn from patent US11912697B1, “1,3-benzothiazol-2-yl-N′-[(pyridine-3-carbonyl)oxy]ethanimidamide as an antitumor and antimicrobial compound” (King Faisal University, priority 2023, dated 2024).
